# Data reported in US11547130B2, “Nanocomposite bacteriostatic material and a preparation method and an application thereof” (Tianjin University of Science and Technology, priority 2019, dated 2023).
# System: Bacillus subtilis
# Assay: Shake-flask antibacterial test, viable count by dilution spread plate method
# Format: cell-based
# Description: Bacillus subtilis was selected as a strain for the antibacterial test. The Bacillus subtilis was cultured for overnight in a shake flask first, and a bacteria solution having a concentration of 10^8 CFU/mL was selected as a seed solution for later use. Multiple 100 mL triangular flasks provided with 30 mL of LB liquid medium were taken, and sterilized for 20 min at 121° C. The triangular flasks were divided into four groups, three triangular flasks in each group for parallel test.
# (§1) The Bacillus subtilis solution having the concentration of 10^8 CFU/mL was inoculated to the above four groups as per an inoculum size of 2% (v/v), and respectively cultured for 4 h, 8 h, 12 h, 24 h and 28 h on a shaker, where a culture condition was 37° C. and 180 r/min. Then, a sample at every timing was taken, and a viable count in each shake flask was measured via a dilution spread plate method to embody the antibacterial activity.
# as §1, with “r/min, for sampling.” for “r/min.”, “sample” for “sample at every timing”, “flask at every moment” for “flask”
substance,measurement,setting,value
nisin,concentration of bacteria in the shake flask,"Experimental example 1 (Embodiment 1 materials, nisin 1 g/L), 1 mL agent in 30 mL LB, 8-12 h in culture",≥ 10^7 CFU/mL
same,concentration of viable bacteria in the shake flask,"Experimental example 1 (Embodiment 1 materials, nisin 1 g/L), 1 mL agent in 30 mL LB, 4 h in culture, 37° C.",≥ 10^4 CFU/mL
same,antibacterial activity in words,"Experimental example 1 (nisin 1 g/L), nisin at 8 h, empty carrier at 24-28 h, nano-composite at 28 h",lost bacteriostatic action at 8 h
same,antibacterial activity in words,"Experimental example 2 (Embodiment 2 materials, nisin 10 g/L), at 16 h",greatly reduced
